# Measured values reported in publication PMC7216583 (Parasites & Vectors, 2020).
# Structures can show the parent of a compound that is named as a salt. Where two headings read alike, the source gives them in different places.
# Legend:
# [1] = tested on: A375 cells; design: method as in library vendor description; details: Hsp90 inhibitor; ref library vendor description; cited from earlier work
# [2] = tested on: Toxoplasma gondii RH-2F tachyzoites; assay: microbe, parasite or virus in culture; details: 72 h
# [3] = design: method as in library vendor description; details: target not given; ref library vendor description; read-out: IC50 (DNA-damaging agent); cited from earlier work
# [4] = in vitro; details: human; for viability at 72 h: Host viability (%) mean
# [5] = target: Aurora A; design: method as in library vendor description; details: ref library vendor description; cited from earlier work
# [6] = tested on: NS3/4A protease of hepatitis C virus (HCV); design: method as in library vendor description; details: ref library vendor description; cited from earlier work
# [7] = tested on: Toxoplasma gondii RH-2F tachyzoites; assay: microbe, parasite or virus in culture; type: cell-based; details: 72 h, read-out: IC50 for parasite growth
# [8] = tested on: human foreskin fibroblasts (HFFs); assay: In vitro drug efficacy: dose-response host cell viability by CCK8 (TD50); type: cell-based; details: uninfected HFFs, serial dilutions 0 to 100 μM, 72 h
# Protocol: Each selected compound with an initial concentration of 100 μM in the culture medium was added to the first column of HFFs (~ 250 cells/well) in a 96-well half-area plate and then diluted serially across the plate by 2-fold dilutions, leaving the final column drug-free. […] Fifty tachyzoites were then added at a MOI of 1:5 to each well in six of the eight rows. After a 72 h incubation, CPRG was added, and the absorbance was measured at 570 nm. Meanwhile, to measure the effect of each compound on the viability of host cells, CCK8 reagent was added to the two rows of uninfected HFFs and absorbance at 450 nm was measured after 2 h. The assay was performed in triplicate and repeated three times.
# [9] = tested on: GFP-TgAtg8 tachyzoites; assay: Flow cytometric analysis of the parasite cell cycle (PI staining); type: cell-based, Toxoplasma gondii; details: 8 h with compound after PDTC synchronization
# Protocol: Flow cytometric analyses were performed as described previously. Briefly, HFFs were infected with GFP-TgAtg8 tachyzoites at a MOI = 1. At 12 hpi, the cell cycle was synchronized by adding 80 μM pyrrolidine dithiocarbamate (PDTC, Sigma-Aldrich) and incubating at 37 °C and 5% CO2 for 8 h. After removing the PDTC, cells were incubated at 37 °C and 5% CO2 for 8 h in media containing the specified compound. The extracellular parasites were removed by washing with ice-cold PBS, and the intracellular tachyzoites were isolated by passage of host cells through a 27-gauge needle and purified with a 3 μm filter. The purified parasites were fixed with ice cold ethanol at − 20 °C for 24 h, and their DNA was stained by using propidium iodide (PI) solution (40 μg/ml PI, 360 μg/ml RNase A and 2% BSA in PBS) at 37 °C for 30 min in the dark. The stained parasites were filtered with a 5 μm pore filter and analysed on a FACSCanto™II flow cytometer (BD Biosciences, CA, USA). The results were analysed on an EPICS-XL flow cytometer (Beckman Coulter, CA, USA) by using SYSTEM II software (Beckman Coulter), and the percentages of the population in each phase of the cell cycle (G1, S, and G2 +M) were calculated. At least 10,000 events were collected per sample.
# [10] = tested on: T. gondii RH strain; assay: Murine model of acute toxoplasmosis: survival; type: in vivo, BALB/c mice; details: 50 mg/kg oral once daily for 5 days, RH tachyzoites ip, 20-day observation, n = 10; vehicle 11.9 ± 0.74 days
# Protocol: To evaluate the ability of the two compounds to protect against acute T. gondii infection in vivo, we used a BALB/c murine model and challenged the mice with the RH-2F strain of T. gondii. Mice were divided into 4 groups consisting of 15 mice each and injected intraperitoneally with 10^3 RH strains per animal. Compounds were dissolved in DMSO and diluted in PBS prior to feeding to mice. After 4 h of infection, mice were treated for 5 consecutive days with daily oral administration of the specified compound at 50 mg/kg (once a day). Mice treated with pyrimethamine (50 mg/kg) were used as a positive control, and 1 ml PBS containing 11 μl of DMSO was used as a negative control. Within each group, 5 mice were euthanized at 7 dpi for comparison of parasite burden, and 10 mice were part of a 20-day survival experiment. Mice were monitored as described previously and scored twice per day for signs of toxoplasmosis, such as impaired mobility, difficulty in feeding, weight loss, self-mutilation and severe ascites. […] At the end of the experimental period, all remaining mice were euthanized.
# [11] = tested on: Kasumi-1 cells; details: in vitro; read-out: IC50 against Kasumi-1 cells; cited from earlier work
# [12] = tested on: Kasumi-1 cells; design: dose or concentration left out as unconfirmed; details: cited from earlier work
# [13] = cited from earlier work
# [14] = tested on: RH GFP-TgAtg8 parasites; assay: Invasion assay; details: pre-treated 8 h, GSK-J4 HCl 5 μM, invasion for 1 h
# [15] = tested on: GFP-TgAtg8 tachyzoites; assay: Egress assay (A23187-induced); details: compound for 24 h, 3 μM A23187 for 5 min
# [16] = tested on: RH GFP-TgAtg8 tachyzoites; assay: Intracellular proliferation assay; details: NVP-AEW541 […], GSK-J4 HCl 5 μM, 24 h after 2 h infection
# [17] = tested on: OSA 8 cells; design: method as in library vendor description; details: HSP90 inhibitor; ref library vendor description; cited from earlier work
# [18] = tested on: PANC1 cells; design: method as in library vendor description; details: ref library vendor description; cited from earlier work
# [19] = tested on: MIAPaCa2 cells; design: method as in library vendor description; details: ref library vendor description; cited from earlier work
# [20] = tested on: BxPC3 cells; design: method as in library vendor description; details: ref library vendor description; cited from earlier work
# [21] = tested on: Capan2 cells; design: method as in library vendor description; details: ref library vendor description; cited from earlier work
# [22] = tested on: mTORC1; design: method as in library vendor description; details: ref library vendor description; cited from earlier work
# [23] = tested on: mTORC2; design: method as in library vendor description; details: ref library vendor description; cited from earlier work
# [24] = tested on: c-Kit; design: method as in library vendor description; details: ref library vendor description; cited from earlier work
# [25] = tested on: KDR; design: method as in library vendor description; details: ref library vendor description; cited from earlier work
# [26] = tested on: Flt; design: method as in library vendor description; details: ref library vendor description; cited from earlier work
# [27] = tested on: CSF-1R; design: method as in library vendor description; details: ref library vendor description; cited from earlier work
# [28] = tested on: c-Raf; design: method as in library vendor description; details: ref library vendor description; cited from earlier work
# [29] = tested on: Lck; design: method as in library vendor description; details: ref library vendor description; cited from earlier work
# [30] = tested on: c-Raf-1Y340D/Y341D; design: method as in library vendor description; details: ref library vendor description; cited from earlier work
# [31] = tested on: CDK9; design: method as in library vendor description; details: ref library vendor description; cited from earlier work
# [32] = target: rat 17,20-lyase; design: method as in library vendor description; details: ref library vendor description; cited from earlier work
# [33] = target: human 17,20-lyase; design: method as in library vendor description; details: ref library vendor description; cited from earlier work
# [34] = tested on: EGFRL858R; design: method as in library vendor description; details: ref library vendor description; cited from earlier work
# [35] = tested on: EGFR(E746_A750); design: method as in library vendor description; details: ref library vendor description; cited from earlier work
# [36] = tested on: EGFRL858R/T790M; design: method as in library vendor description; details: ref library vendor description; cited from earlier work
# [37] = tested on: Toxoplasma gondii RH-2F tachyzoites; details: 5 μM compound, 72 h, RH-2F in HFFs; DMSO 0%, 10 μM pyrimethamine 100% inhibition
# [38] = tested on: human foreskin fibroblasts (HFFs)
# [39] = tested on: NWT-21 cells (NIH3T3 stably expressing the human IGF-IR); details: in vitro; read-out: IC50 against NWT-21 cells; cited from earlier work
# [40] = tested on: NWT-21 fibrosarcoma; details: dose of 50 mg/kg; cited from earlier work
# [41] = tested on: IGF-1R; design: method as in library vendor description; details: ref library vendor description; cited from earlier work
# [42] = read-out: Parasite inhibition (%) mean, preliminary screen, mean
# [43] = read-out: Parasite inhibition (%) mean
compound,measurement,setting,value
CC(C)c1cc(C(=O)N2Cc3ccc(CN4CCN(C)CC4)cc3C2)c(O)cc1O [AT13387],IC50,[1],18 nM
same,inhibition of growth at 5 µM,[2]; [42],-1.7%
Cn1c(CCCC(=O)O)nc2cc(N(CCCl)CCCl)ccc21 [Bendamustine HCL],IC50,[3],50000 nM
same,inhibition of growth at 5 µM,[2]; [43],0.4%
Cc1nc(N)sc1-c1ccnc(Nc2ccc(N3CCOCC3)cc2)n1 [CYC116],viability at 72 h,[4],60.6%
same,Ki,[5],8 nM
same,inhibition of growth at 5 µM,[2]; [42],71.7%
CC(C)(C)OC(=O)N[C@H]1CCCCC/C=C\[C@@H]2C[C@@]2(C(=O)NS(=O)(=O)C2CC2)NC(=O)[C@@H]2C[C@@H](OC(=O)N3Cc4cccc(F)c4C3)CN2C1=O [Danoprevir],IC50,[6],0.2 to 3.5 nM
same,inhibition of growth at 5 µM,[2]; [42],0.9%
CCOC(=O)CCNc1cc(N2CCc3ccccc3CC2)nc(-c2ccccn2)n1 [GSK-J4 HCl],IC50,[7]; Toxoplasma gondii,2370 nM
same,TD50 against HFF (host cell),[8],34.6 µM
same,percentage of parasites in G1 phase,[9],70.88%
same,percentage of parasites in G2 phase,[9],0.00%
same,percentage of parasites in S phase,[9],29.12%
same,survival time of infected mice,[10],15.2 ± 1.69 days
same,IC50,[11],5520 nM
same,leukemia infiltration in AML xenograft mouse model,[12],decreased leukemia infiltration
same,"viability at 72 h, 5 µM",[4]; Host viability (%) Mean ± SD,92.2 ± 3.8%
same,viability at 72 h,[4],92.2%
same,toxicity in experimental mice,[13]; 50 mg/kg of body weight for 4–6 weeks,no apparent toxicity
same,effect on ability of parasites to invade host cells,[14],not affected
same,effect on Toxoplasma egress,[15],neither NVP-AEW541 nor GSK-J4 HCl inhibits Toxoplasma egress
same,effect on Toxoplasma intracellular growth (tachyzoites per vacuole),[16],significantly inhibited Toxoplasma intracellular growth
same,inhibition at 5 µM,[2]; read-out: Parasite inhibition (%) Mean ± SD,90.4 ± 1.4%
CC(C)c1cc(-c2n[nH]c(=O)n2-c2ccc3c(ccn3C)c2)c(O)cc1O [Ganetespib (STA-9090)],IC50,[17],4 nM
same,inhibition of growth at 5 µM,[2]; [42],5.1%
Nc1ccn([C@@H]2O[C@@H](CO)[C@@H](O)C2(F)F)c(=O)n1 [Gemcitabine HCl (Gemzar)],viability,[4],16.8%
same,IC50,[18],50 nM
same,IC50,[19],40 nM
same,IC50,[20],18 nM
same,IC50,[21],12 nM
same,inhibition of growth at 5 µM,[2]; [42],75.4%
COc1ccc(-c2ccc3c(N4CCOCC4)nc(N4C[C@@H](C)O[C@@H](C)C4)nc3n2)cc1CO [Ku-0063794],IC50,[22],[…]
same,inhibition of growth at 5 µM,[2]; [42],31.4%
O=C(Nc1ccc(OC(F)(F)F)cc1)c1sccc1NCc1ccnc2ccccc12 [OSI-930],IC50,[24],80 nM
same,IC50,[25],9 nM
same,IC50,[26],8 nM
same,IC50,[27],15 nM
same,IC50,[28],41 nM
same,IC50,[29],22 nM
same,inhibition of growth at 5 µM,[2]; [42],1%
CCCS(=O)(=O)Nc1ccc(F)c(C(=O)c2c[nH]c3ncc(Cl)cc23)c1F [PLX-4720],IC50,[30],6.7 nM
same,inhibition of growth at 5 µM,[2]; [42],0.2%
CC(C)(C)c1cnc(CSc2cnc(NC(=O)C3CCNCC3)s2)o1 [SNS-032 (BMS-387032)],IC50,[31],[…]
same,inhibition of growth at 5 µM,[2]; [42],9.9%
CNC(=O)c1ccc2cc(C3(O)CCn4cncc43)ccc2c1 (stereo not shown) [TAK-700 (Orteronel)],IC50,[32],54 nM
same,IC50,[33],38 nM
same,inhibition of growth at 5 µM,[2]; [42],0.9%
C=CC(=O)Nc1cccc(Oc2nc(Nc3ccc(N4CCN(C)CC4)cc3)ncc2Cl)c1 [WZ3146],IC50,[34],2 nM
same,IC50,[35],2 nM
same,inhibition of growth at 5 µM,[2]; [43],-33.7%
C=CC(=O)Nc1cccc(Oc2nc(Nc3ccc(N4CCN(C)CC4)cc3OC)ncc2Cl)c1 [WZ4002],IC50,[34],[…]
same,inhibition of growth at 5 µM,[2]; [42],-5.9%
NVP-AEW541,IC50,"[7]; RH-2F-infected HFFs, serial dilutions 0 to 100 μM, β-Gal activity",1170 nM
same,TD50 against HFF (host cell),[8],7.3 µM
same,percentage of parasites in G1 phase,[9],44.25%
same,percentage of parasites in G2 phase,[9],8.30%
same,percentage of parasites in S phase,[9],47.45%
same,survival time of infected mice,[10],14.6 ± 1.84 days
same,Parasite inhibition (%) Mean ± SD,[37],91.5 ± 2.5%
same,Host viability (%) mean,[38],80.7%
same,Host viability (%) Mean ± SD,[38]; 5 µM,80.7 ± 1.2%
same,IC50,[39],1640 nM
same,anti-tumour activity in mouse model,[40],had anti-NWT-21 fibrosarcoma activity
same,IC50,[41],86 nM
same,toxicity in experimental mice,[13]; 50 mg/kg of body weight for 1–2 weeks,no apparent toxicity
same,effect on Toxoplasma egress,[15],neither NVP-AEW541 nor GSK-J4 HCl inhibits Toxoplasma egress
same,effect on Toxoplasma intracellular growth (tachyzoites per vacuole),[16],not impaired
